The subject of data set [1] is airway contraction induced by methacholine. Nature of the data set: Airway contraction measuring method (Konzett & Rossler), methacholine-induced. Format: in vivo. The settings on record: guinea pig. As for the experimental part:
Male Std:Hartley guinea pigs (Japan SLC Inc., week of age at the time of use: 6 weeks of age, from 340.6 to 488.0 g in body weight) were anesthetized with urethane, and a canula was inserted into the trachea. The trachea canula was connected to a quantitative artificial ventilator, and under artificial respiration, a catheter was indwelled in the left jugular vein. Measurement of the airway contraction was carried out by the Konzett & Rossler method. Guinea pigs were subjected to artificial respiration at a ventilation of 4 ml/animal and a ventilation frequency of 70 times/minute. Changes in the ventilation pressure were measured by a transducer (UGO BASILE, BRONCHOSPASM TRANSDUCER 7020) connected to the sub-bypass of the trachea canula. By inserting a catheter into the jugular vein, imidafenacin was administered by continuous intravenous infusion (100 μl/kg/min). After 75 minutes of the start of administration of the agent liquid, methacholine (10 μg/kg) was intravenously administered to induce airway contraction. The airway contraction inhibitory activity was evaluated using peak height of the airway contraction induced by methacholine as the index.
In this connection, the blood concentration measurement was carried out by LC/MS/MS using blood plasma.

Data set [2] relates to bladder contraction induced by methacholine. The class given is in vivo. The settings on record: guinea pig. From the text: Male Std:Hartley guinea pigs (Japan SLC Inc., week of age at the time of use: 6 weeks of age, from 340.6 to 488.0 g in body weight) were anesthetized with urethane. The abdominal region was subjected to median incision, and then both sides of ureters were ligated in order to prevent inflow of urine from the kidney to the bladder. After ligation of the bladder cervix, a catheter for intravesical pressure measurement use was inserted from the bladder apex and fixed by ligation. Thereafter, in order to measure intravesical pressure, 1 ml of physiological saline was injected into the bladder. Next, a catheter was indwelled in the left jugular vein. The intravesical pressure was measured via an amplifier for strain pressure use (Nihon Kohden Corporation, CARRIER ANPLIFIER AP-601G) by connecting the catheter for intravesical pressure measuring use to a pressure transducer (Nihon Kohden Corporation, LIFE KIT DX-100). By inserting a catheter into the jugular vein, imidafenacin was administered by continuous intravenous infusion (100 μl/kg/min). After 75 minutes of the commencement of administration of the agent liquid, methacholine (10 μg/kg) was intravenously administered to induce bladder contraction. The bladder contraction inhibitory activity was evaluated using peak height of the bladder contraction induced by methacholine as the index. […]

Setting [3] is: continuous intravenous infusion, methacholine 10 μg/kg after 75 minutes.

Regarding `Cc1nccn1CCC(C(N)=O)(c1ccccc1)c1ccccc1` [imidafenacin, 4-(2-methyl-1-imidazolyl)-2,2-diphenylbutylamide], in data set [1] (setting [3]), the “ID50, airway contraction inhibitory activity” value came to 0.061 µg/kg/min. Also, the “blood concentration at around the ID50 value (airway contraction)” value in data set [1] (plasma, LC/MS/MS) was “about 1 ng/ml”. Besides, in data set [2] (setting [3]), the “ID50, bladder contraction inhibitory activity” value was determined as 0.064 µg/kg/min. The “blood concentration at around the ID50 value (intravesical pressure)” value in data set [2] (male, Hartley, in vivo) is recorded as “about 1 ng/ml”.
